Reference: patent publication US9371335B2, “Spirothienopyran-piperidine derivatives as ORL-1 receptor antagonists for their use in the treatment of alcohol dependence and abuse” (Eli Lilly and Company, priority 2011, dated 2016)

Tested on: Alcohol-Preferring (P) rats
Test: Operant ethanol self-administration in P rats (progressive ratio schedule)
Format: in vivo, rat
Conditions: for ethanol-motivated responding: P rats on progressive ratio schedule, result in words; for Reduction vs. Vehicle (lever presses) / Mean Number of Lever Presses (Drug-treated): female P rats; for Mean Number of Lever Presses (Drug-treated): 30-min progressive ratio session
Source text: Operant Self-Administration in P rats:
Female P rats are obtained and pair-housed from a private colony (Taconic, Germantown, N.Y.). In order to reduce novelty-induced avoidance of ethanol, the water bottle on the homecage is replaced with a bottle containing 15% ethanol in water (v/v, in water) for two days prior to operant training. Throughout the rest of the experiment, rats receive ad libitum access to water and standard laboratory chow, with no further access to ethanol in the homecage.
Rats are trained to press a lever for ethanol reinforcement in daily 30-min sessions conducted in standard rat operant chambers contained within sound-attenuating chambers (MED Associates, Inc., St. Albans, Vt.). The chambers consist of two stainless steel and two clear Plexiglas walls. The floor grid of the operant chambers consists of 0.5 cm diameter stainless steel bars placed approximately 1.5 cm apart. Each operant chamber contains two retractable operant levers located approximately 6 cm above the grid floor and 13 cm apart. A recessed trough is located in the space between the levers, through which a dipper cup (0.1 mL capacity) is raised to deliver response-contingent ethanol (15%, v/v, in water). Upon a reinforced response, a stimulus light is illuminated above the lever on which the response was made throughout the 4-sec dipper cup access. Operation of the stimuli and behavioral responses are controlled and recorded by personal computer for offline analysis (MED Associates, Inc., St. Albans, Vt.).
During operant training, responses on either lever are considered correct responses and are rewarded with 0.1 mL ethanol reinforcement. […] Once stable baseline responding is reached on an FR-1 schedule of reinforcement, the response contingency is increased to FR-2 and then again to FR-3 so that 3 lever presses are required for each reinforcement. […] Specifically, the response requirement is increased as follows: all rats begin each session at an FR-1 schedule of reinforcement; after three reinforcements, the schedule is increased to FR-2; after three reinforcements at that level, the schedule is increased by two to FR-4; after three reinforcements, the schedule is increased by two to FR-6; and so on (see for e.g. Oster S M, Toalston J E, Kuc K A, Pommer T J, Murphy J M, Lumeng L, Bell R L, McBride W J and Rodd Z A (2006) Effects of multiple alcohol deprivations on operant ethanol self-administration by high-alcohol-drinking replicate rat lines. Alcohol 38:155-164). Each session lasts a total of 30 min, after which, all stimuli are turned off and levers are retracted. […] The amount of ethanol consumed is calculated from the number of active lever presses, and converted into g/kg EtOH consumed. Rats receive oral administration of vehicle or test compound in the dose range of 3, 10, or 30 mg/kg (3 mL/kg dose volume, dissolved in a vehicle consisting of 20% Captisol® in 25 mM phosphate buffer at pH=2), or the nonselective opioid receptor antagonist naltrexone (10 mg/kg) as a positive control, 60 min. prior to the session, using a within-subjects, crossover design (3-4 day washout between subsequent doses). On a separate occasion, rats receive oral administration of vehicle or 30 mg/kg test compound (1 mL/kg dose volume, dissolved in a vehicle consisting of 20% Captisol® in 25 mM phosphate buffer), 30 min prior to the session, using a crossover design.

| SMILES | ethanol-motivated responding | Reduction vs. Vehicle (lever presses) (3 mg/kg oral) [%] | Mean Number of Lever Presses (Drug-treated) (3 mg/kg oral) | Reduction vs. Vehicle (lever presses) (10 mg/kg oral) [%] | Mean Number of Lever Presses (Drug-treated) (10 mg/kg oral) | Reduction vs. Vehicle (lever presses) (30 mg/kg oral) [%] | Mean Number of Lever Presses (Drug-treated) (30 mg/kg oral) |
| --- | --- | --- | --- | --- | --- | --- | --- |
| Cc1nn(-c2ncccc2CO)cc1CN1CCC2(CC1)OCC(F)(F)c1cc(Cl)sc12 [Compound 1, [2-[4-[(2-chloro-4,4-difluoro-spiro[5H-thieno[2,3-c]pyran-7,4′-piperidine]-1′-yl)methyl]-3-methyl-pyrazol-1-yl]-3-pyridyl]methanol] | reduce ethanol-motivated responding | 4.6 | 412.58 | 23.7 | 330 | 55.8 | 191.25 |
| Cc1nn(-c2ncccc2F)cc1CN1CCC2(CC1)OCC(F)(F)c1cc(Cl)sc12 [Compound 2, 2-Chloro-4,4-difluoro-1′-[[1-(3-fluoro-2-pyridyl)-3-methyl-pyrazol-4-yl]methyl]spiro[5H-thieno[2,3-c]pyran-7,4′-piperidine]] | reduce ethanol-motivated responding | – | – | – | – | 61.9 | 143.31 |
